Reference: article PMC10215448, “The Antimicrobial Effects of Colistin Encapsulated in Chelating Complex Micelles for the Treatment of Multi-Drug-Resistant Gram-Negative Bacteria: A Pharmacokinetic Study” (Antibiotics, 2023)
Counter-ions that a name gives are not always drawn. Bridge positions count the residues as written; N and C are the ends. Square brackets hold non-standard residues; d marks the D form. Peptide text beside a SMILES is read from it. * marks the point of attachment. X1 = CC[C@H](C)CCCCC(=O)*; Dab = NCC[C@H](N)C(=O)O

Key:
[1] = tested on: Acinetobacter baumannii 10591; assay: MIC by broth microdilution; assay type: cell-based; conditions: Mueller-Hinton broth, 5 x 10^5 CFUs/mL, 37 °C, 24 h
Procedure: (§1) Antimicrobial effects of the colistin and CCM-CL against P. aeruginosa ATCC 27853, A. baumannii BCRC 10591, and P. aeruginosa 048,431 were determined by the minimal inhibitory concentration (MIC). P. aeruginosa ATCC […] and A. baumannii BCRC 10591 are standard strains; they were purchased from the American Type Culture Collection and Biosource Collection and Research Center, Taiwan, respectively. P. aeruginosa 048431 is a carbapenem-resistant blood isolate from a patient with lung adenocarcinoma and ventilator-associated pneumonia. The broth microdilution method determined the MICs for the study drugs. Briefly, serial doubling dilutions of antimicrobial agents were made in a Mueller–Hinton broth. The final bacterial suspension in the mixture was adjusted to 5 × 10^5 CFUs/mL, and the exact colony count was measured by plating 10-fold serially diluted specimens of 100 μL aliquots on drug-free nutrient agar (Difco Laboratories, Franklin, NJ, USA). The mixtures of bacteria and drugs were incubated at 37 °C for 24 h. The MIC is defined as the lowest antibiotic concentration preventing visible growth in broth.

[2] = tested on: Pseudomonas aeruginosa 048431 (carbapenem-resistant blood isolate); assay: MIC by broth microdilution; assay type: cell-based; conditions: Mueller-Hinton broth, 5 x 10^5 CFUs/mL, 37 °C, 24 h
Procedure: as §1

[3] = tested on: Pseudomonas aeruginosa ATCC27853; assay: MIC by broth microdilution; assay type: cell-based; conditions: Mueller-Hinton broth, 5 x 10^5 CFUs/mL, 37 °C, 24 h
Procedure: as §1

[4] = tested on: male C57BL/6 mice; assay: No observed adverse effect level (NOAEL), up-and-down procedure; assay type: in vivo; conditions: for No. of Survival/Total Mice: 6 mg/mL, 8-week-old male C57BL/6 mice
Procedure: In the up-and-down method, animals were dosed one at a time. If an animal survived, the dose for the next animal increased; if it died, the next dose decreased. This test determined the safety of a single dose for intravenous bolus injection and 3 min infusion.

[5] = Pharmacokinetic study, plasma colistin after intravenous dosing; assay type: in vivo, Sprague-Dawley (SD) rats; conditions: male SD rats, iv 3 mg/kg for 15 min, LC-MS; for t1/2, elimination half-time T1/2(β): 3 rats per group, colistin one-compartment, CCM-CL two-compartment model (PKsolver), 3 mg/kg
Procedure: Chromatographic separation was performed by the ACQUITY UHPLC system (Waters Corporation, Milford, MA, USA) on a Phenomenex Kinetex EVO C18 column (150 mm × 4.6 mm; I.D. 5 μm) maintained at 25 ± 5 °C. The mobile phase consisted of solution ‘A’ (acetonitrile) and solution ‘B’ (0.05% trifluoroacetic acid in water, v/v). The percentage was initially set at 10% and increased to 60% within 5 min, using a flow rate of 0.5 mL/min. […] The total run time was 9 min, and the injection volume was 20 μL. We set the autosampler at 10 ± 5 °C. The ultra-performance liquid chromatography (UHPLC) was interfaced to an ACQUITY QDa detector (Waters Corporation) with electrospray ionization […] in positive mode used for detection. The optimized tuning parameters were as follows: capillary voltage, 0.3 kV; cone voltage, 8 V; and probe temperature, 600 °C. The mass transitions were m/z 585.5 for colistin A, 578.5 for colistin B, and 602.8 for polymyxin B (an internal standard).
Sample pre-treatment: Five microliters of polymyxin B (Toronto Research Chemicals, CAS number 1405-20-5) dissolved in water (420 μg/mL, an internal standard) was added to 100 μL rat plasma sample. After that, 400 μL of acetonitrile and 10% trichloroacetic acid mixed solution (50/50, v/v) was added. The samples were vortex-mixed for 1 min and then centrifuged at 12,000 rpm for 10 min. Following centrifugation, the supernatant was collected and filtered with 0.45 μm PVDF membrane filter for analysis.
The day before the pharmacokinetic study, the right carotid artery of each rat was cannulated for collection of blood samples. Following surgery, rats were individually housed in metabolic cages and were given 24 h for recovery. […] Blood plasma was collected at min 0, 15, 60, 120, and 180 following drug infusion. All blood samples were collected and transferred into an EDTA-K2 tube, and were then centrifuged at 1500 rcf for 10 min at 4 °C. The experiments were repeated three times. After centrifugation, the plasma was collected and examined by LC-MS. In previous pharmacokinetic studies, colistin is best described by the one-compartment linear model. […] CMS is hydrolyzed to form partially sulfomethylated derivatives as well as colistin sulfate, the active form of the drug. Like CMS, colistin is released from CCM-CL once ferrous ions in the CCM complex are captured by transferrin [34]. Therefore, we estimated the pharmacokinetics for colistin using the one-compartment model and CCM-CL using the two-compartment model. The data were analyzed using PKsolver (Microsoft Excel).

[6] = tested on: carbapenem-resistant P. aeruginosa 048431 pneumonia; assay: Survival study in the neutropenic murine pneumonia model; assay type: in vivo; conditions: neutropenic (cyclophosphamide) male C57BL/6 mice, intratracheal P. aeruginosa 048431, 8 mg/kg iv 90 min after infection and again on day 2, n = 10
Procedure: (§2) Male C57BL/6 mice (21 to 23 g) were divided into three groups (namely control, free colistin, and CCM-CL), with 10 mice in each group. All animals were administered 150 mg/kg of cyclophosphamide intraperitoneally, 3 days and 1 day before infection. At day 0 (defined as infection day), mice were infected with 0.04 mL of a drug-resistant strain P. aeruginosa 048431, which was administered intratracheally at a concentration of 5 × 10^5 CFUs/mL. Ninety minutes later, water, free colistin, and CCM-CL were administered intravenously at 8 mg/kg. On day 2, free colistin and CCM-CL at a dose of 8 mg/kg and water were administered again (Figure 5).
Data were analyzed using WinSTATt (Microsoft Excel). Overall survival probabilities […] were estimated using the Kaplan–Meier method. The log-rank test (Cox–Mantel) was used to test significant differences in survival among groups.

[7] = tested on: carbapenem-resistant P. aeruginosa (CRPA); assay: Bacterial load in lung of infected mice; assay type: in vivo, C57BL/6 mice; conditions: mice infected intratracheally, drug iv 1.5 h after infection, sacrificed 48 h later, lung homogenate 10-fold diluted, 48 h incubation
Procedure: as §2
This study was conducted and administered along with the survival assay. The pulmonary burden of P. aeruginosa was determined on the third day. Mice were sacrificed with carbon dioxide; then, their lungs were removed aseptically and rinsed with sterile saline. The lungs were treated with a homogenizer and then subjected to a 10-fold series of dilutions; 0.05 mL of each dilution was plated on dextrose agar. The plates were then incubated at 37 °C for 2 days, and the colonies were then enumerated.

Structure (SMILES): CC[C@H](C)CCCCC(=O)N[C@@H](CCN)C(=O)N[C@H](C(=O)N[C@@H](CCN)C(=O)N[C@H]1CCNC(=O)[C@H]([C@@H](C)O)NC(=O)[C@H](CCN)NC(=O)[C@H](CCN)NC(=O)[C@H](CC(C)C)NC(=O)[C@@H](CC(C)C)NC(=O)[C@H](CCN)NC1=O)[C@@H](C)O [Colistin, Colistin sulfate] (X1-[Dab]T[Dab][Dab][Dab][dL]L[Dab][Dab]T; lactam 4-C)
- Minimal inhibitory concentration [1]: 2
- Minimal inhibitory concentration [2]: 0.5
- Minimal inhibitory concentration [3]: 0.5
- No. of Survival/Total Mice ([4]; intravenous bolus injection, single dose 8 mg/kg): 5/5
- No. of Survival/Total Mice ([4]; intravenous bolus injection, single dose 13 mg/kg): 0/1
- No. of Survival/Total Mice ([4]; intravenous bolus injection, single dose 20 mg/kg): 1/3
- Safe dosage (NOAEL), slow infusion ([4]; single 3 min intravenous infusion, male C57BL/6 mice): 8 mg/kg
- Safe (NOAEL) dose, bolus ([4]; single intravenous bolus injection, male C57BL/6 mice): 13 mg/kg
- No. of Survival/Total Mice ([4]; slow infusion (3 min), single dose 13 mg/kg): 0/1
- AUC0–t ([5]; plasma sampled to 180 min): 239.31 mg·min/L
- AUC0–inf ([5]; plasma): 239.32 mg·min/L
- Cmax ([5]; plasma): 9.03 µg/mL
- t1/2, elimination half-time T1/2(β) ([5]; plasma): 12.46 min
- t1/2, elimination half-time T1/2(β) ([5]; plasma, listed as free colistin): 102.23 min
- 14-day survival rate [6]: 30%
- Colony counts of CRPA isolated from the lungs [7]: 60 CFU
